Data: publication PMC7997411, “Discovery and Optimization of Selective Inhibitors of Meprin α (Part II)” (Pharmaceuticals, 2021)
“And” between values parts separate entries of the source, which are not always exact repeats. Equal entries are not always repeated. Where two headings read alike, the source gives them in different places.

Legend:
ADAM17 = target: T1, ADAM17 (Homo sapiens, UniProt P78536); settings: cited from earlier work
T1 construct: purchased R&D Systems 930-ADB

Meprin β = settings: cited from earlier work
ADAM10 = target: T2, ADAM10 (Homo sapiens, UniProt O14672); settings: cited from earlier work
T2 construct: purchased R&D Systems 936-AD
T2 sequence (O14672 214-748): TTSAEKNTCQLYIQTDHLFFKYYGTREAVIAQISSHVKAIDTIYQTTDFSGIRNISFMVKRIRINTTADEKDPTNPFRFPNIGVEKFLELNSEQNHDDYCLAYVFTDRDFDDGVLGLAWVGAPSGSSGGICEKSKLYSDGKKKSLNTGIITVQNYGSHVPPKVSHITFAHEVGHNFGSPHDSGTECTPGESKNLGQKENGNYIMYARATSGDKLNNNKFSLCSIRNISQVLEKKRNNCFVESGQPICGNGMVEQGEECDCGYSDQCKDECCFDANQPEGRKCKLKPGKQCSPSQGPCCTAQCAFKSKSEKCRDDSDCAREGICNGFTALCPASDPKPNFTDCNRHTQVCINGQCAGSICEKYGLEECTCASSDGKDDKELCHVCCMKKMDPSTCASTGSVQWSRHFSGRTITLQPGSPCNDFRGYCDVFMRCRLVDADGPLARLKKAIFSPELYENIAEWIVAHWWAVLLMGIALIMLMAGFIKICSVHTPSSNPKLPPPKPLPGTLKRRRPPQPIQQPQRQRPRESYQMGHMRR

MMP2 = target: T3, MMP2 (Homo sapiens, UniProt P08253); settings: cited from earlier work
T3 construct: purchased R&D Systems 902-MP
T3 sequence (P08253 110-660): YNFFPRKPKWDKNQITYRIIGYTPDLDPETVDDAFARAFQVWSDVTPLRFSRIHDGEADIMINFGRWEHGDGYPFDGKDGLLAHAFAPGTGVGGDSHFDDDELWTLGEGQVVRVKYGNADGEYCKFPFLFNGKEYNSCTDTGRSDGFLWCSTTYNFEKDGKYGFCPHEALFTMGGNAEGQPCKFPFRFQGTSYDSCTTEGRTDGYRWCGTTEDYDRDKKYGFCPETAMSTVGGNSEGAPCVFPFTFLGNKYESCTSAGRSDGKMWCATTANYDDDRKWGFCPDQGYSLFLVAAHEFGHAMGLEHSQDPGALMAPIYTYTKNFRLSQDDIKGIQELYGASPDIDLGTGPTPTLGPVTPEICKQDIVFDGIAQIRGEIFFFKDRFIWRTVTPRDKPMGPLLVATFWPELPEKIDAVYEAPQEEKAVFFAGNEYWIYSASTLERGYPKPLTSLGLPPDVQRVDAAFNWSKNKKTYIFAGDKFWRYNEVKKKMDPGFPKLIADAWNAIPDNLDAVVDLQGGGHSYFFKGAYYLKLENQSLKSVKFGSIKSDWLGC

MMP13 = target: T4, MMP13 (Homo sapiens, UniProt P45452); settings: cited from earlier work
T4 construct: purchased R&D Systems 511-MM

Meprin α [1] = settings: cited from earlier work; for meprin α/β fold selectivity ratio: meprin α over meprin β ref 8
MMP9 = target: T5, MMP9 (Homo sapiens, UniProt P14780); settings: cited from earlier work
T5 construct: purchased R&D Systems 911-MP
T5 sequence (P14780 94-707): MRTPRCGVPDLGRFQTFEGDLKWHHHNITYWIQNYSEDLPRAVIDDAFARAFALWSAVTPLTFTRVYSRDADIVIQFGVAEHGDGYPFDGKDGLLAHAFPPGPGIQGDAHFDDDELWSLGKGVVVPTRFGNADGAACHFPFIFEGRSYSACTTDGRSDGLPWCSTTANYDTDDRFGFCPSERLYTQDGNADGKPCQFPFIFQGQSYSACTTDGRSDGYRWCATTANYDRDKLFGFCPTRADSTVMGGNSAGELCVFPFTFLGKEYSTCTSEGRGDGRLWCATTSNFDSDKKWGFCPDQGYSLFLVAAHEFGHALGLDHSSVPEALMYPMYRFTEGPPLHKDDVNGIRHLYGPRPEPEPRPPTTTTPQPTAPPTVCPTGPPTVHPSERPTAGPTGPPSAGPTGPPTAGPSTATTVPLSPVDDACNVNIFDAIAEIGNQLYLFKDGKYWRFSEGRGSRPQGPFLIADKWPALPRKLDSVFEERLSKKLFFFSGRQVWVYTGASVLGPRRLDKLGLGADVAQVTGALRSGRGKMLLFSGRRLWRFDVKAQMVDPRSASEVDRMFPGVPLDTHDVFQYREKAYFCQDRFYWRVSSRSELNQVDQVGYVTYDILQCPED

human meprin β = target: T6, human meprin β (Homo sapiens, UniProt Q16820); experiment: Meprin β assay in a 384-well plate (fluorogenic substrate Mca-EDEDED-K(Dnp)); type: biochemical; settings: triplicate, ± SD
T6 construct: His-tag; made in house; host or cells: BTI-TN-5B1-4 insect cells (baculovirus, amplified in Sf9)
T6 sequence (Q16820 62-701): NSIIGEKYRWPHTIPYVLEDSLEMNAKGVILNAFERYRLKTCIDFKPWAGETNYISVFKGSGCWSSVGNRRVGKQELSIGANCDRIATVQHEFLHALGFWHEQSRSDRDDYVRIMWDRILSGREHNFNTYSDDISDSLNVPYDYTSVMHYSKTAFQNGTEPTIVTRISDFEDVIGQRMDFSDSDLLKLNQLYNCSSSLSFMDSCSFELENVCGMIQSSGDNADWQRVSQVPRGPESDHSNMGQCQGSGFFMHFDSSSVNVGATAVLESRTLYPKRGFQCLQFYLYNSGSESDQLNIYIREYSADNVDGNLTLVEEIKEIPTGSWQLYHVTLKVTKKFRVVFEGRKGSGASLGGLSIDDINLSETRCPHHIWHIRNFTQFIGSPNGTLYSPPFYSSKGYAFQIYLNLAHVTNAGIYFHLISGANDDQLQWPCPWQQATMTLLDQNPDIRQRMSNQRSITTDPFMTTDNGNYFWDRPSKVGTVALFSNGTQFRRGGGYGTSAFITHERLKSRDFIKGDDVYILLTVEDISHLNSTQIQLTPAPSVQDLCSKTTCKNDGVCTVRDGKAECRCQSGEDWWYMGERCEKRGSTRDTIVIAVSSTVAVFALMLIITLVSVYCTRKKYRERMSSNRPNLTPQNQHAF
Procedure: (§1) Recombinant human meprin α and meprin β were expressed using the Bac-to-Bac expression system (Gibco Life Technologies, Paisley, UK) as described before. Media and supplements were obtained from Gibco Life Technologies. Recombinant Baculoviruses were amplified in adherently growing Spodoptera frugiperda (Sf)9 insect cells at 27 °C in Grace’s insect medium supplemented with 10% fetal bovine serum, 50 units/mL penicillin, and 50 μg/mL streptomycin. Protein expression was performed in 500 mL suspension cultures of BTI-TN-5B1-4 insect cells growing in Express Five SFM supplemented with 4 mM glutamine, 50 units/mL penicillin, and 50 μg/mL streptomycin in Fernbach-flasks using a Multitron orbital shaker (INFORS AG, Bottmingen, Switzerland). Cells were infected at a density of 2 × 10^6 cells/mL with an amplified viral stock at a MOI of ~10. […] Meprins were activated by trypsin, which was removed afterwards by affinity chromatography using a column containing immobilized chicken ovomucoid, a trypsin inhibitor.
(§2) Both assays followed the same general protocol. […] After 30 min incubation at RT, the reactions were started by addition of 5 µL of 2× solutions of substrates (20 µM, meprin α Mca-YVADAPK-K(Dnp), and for meprin β Mca-EDEDED-K(Dnp)).

meprin α [2] = target: T7, meprin α (Homo sapiens, UniProt Q16819); experiment: Meprin α assay in a 384-well plate (fluorogenic substrate Mca-YVADAPK-K(Dnp)); type: biochemical
T7 construct: Strep-tag; made in house; host or cells: BTI-TN-5B1-4 insect cells (baculovirus, amplified in Sf9)
T7 sequence (Q16819 66-746): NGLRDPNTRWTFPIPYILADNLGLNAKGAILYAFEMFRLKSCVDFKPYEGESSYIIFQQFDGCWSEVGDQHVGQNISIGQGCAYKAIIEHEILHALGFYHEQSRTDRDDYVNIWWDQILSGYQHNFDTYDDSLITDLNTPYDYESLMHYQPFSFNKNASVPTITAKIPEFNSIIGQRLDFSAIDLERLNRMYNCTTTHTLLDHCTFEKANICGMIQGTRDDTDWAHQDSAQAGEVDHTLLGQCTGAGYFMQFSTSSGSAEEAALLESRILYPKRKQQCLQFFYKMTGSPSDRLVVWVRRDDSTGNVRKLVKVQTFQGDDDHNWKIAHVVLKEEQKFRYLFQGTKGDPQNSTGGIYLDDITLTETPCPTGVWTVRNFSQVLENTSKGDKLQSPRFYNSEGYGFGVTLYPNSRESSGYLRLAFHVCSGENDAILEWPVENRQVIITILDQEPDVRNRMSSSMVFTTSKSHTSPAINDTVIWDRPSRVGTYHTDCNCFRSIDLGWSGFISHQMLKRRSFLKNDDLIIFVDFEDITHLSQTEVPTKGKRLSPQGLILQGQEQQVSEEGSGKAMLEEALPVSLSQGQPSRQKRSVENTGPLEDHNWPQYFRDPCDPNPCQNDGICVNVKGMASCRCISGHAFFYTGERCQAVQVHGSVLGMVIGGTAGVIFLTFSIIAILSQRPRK
Procedure: as §1, §2

[3] = tested on: MMP-2, MMP-3, MMP-8, MMP-9, MMP-10, MMP-14, ADAM10, and ADAM17; experiment: Selectivity panel of related metzincins; type: biochemical; settings: meprin α vs MMP-2, MMP-3, MMP-8, MMP-9, MMP-10, MMP-14, ADAM10, ADAM17
Procedure: Both assays followed the same general protocol. 2.5 µL of 2× enzyme solution (20 nM) in assay buffer (10 mM HEPES, 0.001% Brij-35, pH 7.5) were added to solid bottom black 384 plates (Greiner, cat# 789075). Next, test compounds and pharmacological controls were added to corresponding wells using a 384-pin tool device (V&P Scientific, San Diego). After 30 min incubation at RT, the reactions were started by addition of 2.5 µL of 2× solutions of substrate (R&D Systems cat#: ES010, Mca-KPLGL-Dpa-AR-NH2, 20 µM). Reactions were incubated at RT for 2 h, after which the fluorescence was measured using a Perkin Elmer Viewlux multimode microplate imager (λexcitation = 324 nm, λemission = 393 nm). All compounds were tested in 10-point, 1:3 serial dilutions dose-response format starting with highest concentration of 100 µM. IC50 values were determined using non-linear regression analysis using the GraphPad Prism 8.0 suite of programs.
All assays followed the same general protocol. […] Reactions were incubated at RT for 1 h, after which the fluorescence was measured using the Synergy H4 multimode microplate reader (Biotek Instruments) (λexcitation = 324 nm, λemission = 390 nm). […] IC50 values were determined using non-linear regression analysis using the GraphPad Prism 8.0 suite of programs.

[4] = single value given, at 10 μM ref 11

T1 sequence (P78536 215-824): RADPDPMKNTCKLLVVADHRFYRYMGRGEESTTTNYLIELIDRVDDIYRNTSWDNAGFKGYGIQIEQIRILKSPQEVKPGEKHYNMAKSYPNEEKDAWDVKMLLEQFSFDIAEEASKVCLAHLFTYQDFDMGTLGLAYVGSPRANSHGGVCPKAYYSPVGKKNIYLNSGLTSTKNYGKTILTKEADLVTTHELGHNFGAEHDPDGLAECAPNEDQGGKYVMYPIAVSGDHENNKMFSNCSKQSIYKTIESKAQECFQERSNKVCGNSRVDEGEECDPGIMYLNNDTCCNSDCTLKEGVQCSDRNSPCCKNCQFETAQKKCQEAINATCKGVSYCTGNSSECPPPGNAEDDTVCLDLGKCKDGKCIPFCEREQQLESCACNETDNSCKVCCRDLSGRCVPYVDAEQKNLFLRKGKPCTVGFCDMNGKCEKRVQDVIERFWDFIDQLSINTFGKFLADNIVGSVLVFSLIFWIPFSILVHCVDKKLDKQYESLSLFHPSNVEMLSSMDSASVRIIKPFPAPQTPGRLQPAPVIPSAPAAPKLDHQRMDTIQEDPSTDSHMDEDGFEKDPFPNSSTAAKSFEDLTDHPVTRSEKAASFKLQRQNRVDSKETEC

| SMILES | ADAM17 % activity remaining (ADAM17; [4]) | IC50 (Meprin β) | ADAM10 % activity remaining (ADAM10; [4]) | MMP2 % activity remaining (MMP2; [4]) | MMP13 % activity remaining (MMP13; [4]) | IC50 (Meprin α [1]) | MMP9 % activity remaining (MMP9; [4]) | ADAM17 % activity remaining (ADAM17; at 10 μM (top) ref 8) | ADAM17 % activity remaining (ADAM17; at 200 μM (bottom) ref 8) | ADAM10 % activity remaining (ADAM10; at 10 μM (top) ref 8) | ADAM10 % activity remaining (ADAM10; at 200 μM (bottom) ref 8) | MMP2 % activity remaining (MMP2; at 10 μM (top) ref 8) | MMP2 % activity remaining (MMP2; at 200 μM (bottom) ref 8) | MMP13 % activity remaining (MMP13; at 10 μM (top) ref 8) | MMP13 % activity remaining (MMP13; at 200 μM (bottom) ref 8) | meprin α/β fold selectivity ratio (Meprin α [1]) | MMP9 % activity remaining (MMP9; at 10 μM (top) ref 8) | MMP9 % activity remaining (MMP9; at 200 μM (bottom) ref 8) | further results |
| --- | --- | --- | --- | --- | --- | --- | --- | --- | --- | --- | --- | --- | --- | --- | --- | --- | --- | --- | --- |
| O=C(Cc1c(-c2ccccc2)n[nH]c1-c1ccccc1)NO [2e] | 61% | 199 ± 1 nM | 73% | 104% | 75% | 3 ± 1 nM | 81% |  |  |  |  |  |  |  |  |  |  |  |  |
| COc1ccc(-n2c(CSc3ncccn3)nnc2SCC(=O)NO)cc1 [SR19855, N-hydroxy-2-((4-(4-methoxyphenyl)-5-((pyrimidin-2-ylthio)methyl)-4H-1,2,4-triazol-3-yl)thio)acetamide] |  |  |  |  |  |  |  |  |  |  |  |  |  |  |  |  |  |  | IC50 (human meprin β): 17000 ± 3000 nM; meprin α/β selectivity (in words) (meprin α [2]; Figure 1): moderate meprin α/β selectivity; meprin α/β fold selectivity (ratio of IC50 values) (meprin α [2]; meprin α over meprin β): ~ 13 fold and 13 fold; IC50 (meprin α [2]; triplicate, ± SD): 1300 ± 100 nM; Meprin α IC50 (meprin α [2]; triplicate, ± SD): low-micromolar; selectivity over a larger panel of metzincins [3]: at least 10 fold |
| O=C(CN(Cc1ccc2c(c1)OCO2)Cc1ccc2c(c1)OCO2)NO [10d] |  | 2950 ± 350 nM |  |  |  | 160 ± 1 nM |  | 86% | 57% | 86% | 61% | 95% | 26% | 86% | 55% | 18 fold | 91% | 61% |  |
| O=C(CN(Cc1ccc2c(c1)OCCO2)Cc1ccc2c(c1)OCCO2)NO [10e] |  | 7590 ± 10 nM |  |  |  | 400 ± 30 nM |  | 80% | 41% | 80% | 56% | 94% | 65% | 98% | 47% | 19 fold | 91% | 21% |  |
| O=C(Cc1c(-c2ccccc2)noc1-c1ccccc1)NO [2c] | 62% | 813 ± 1 nM | 80% | 87% | 80% | 4 ± 1 nM | 86% |  |  |  |  |  |  |  |  |  |  |  |  |
